Data on 29 molecules can be found in patent US6265603A, “Inhibitors of isoprenyl transferase” (Eisai Co., Ltd., priority 1999, dated 2001).

The subject of one assay is H-ras. Briefly: Inhibition of H-ras prenylation/processing in whole cells (H-ras (61 L) transformed NIH3T3 fibroblasts, Western blot). The class given is cell-based. Conditions: for IC50: Mus musculus; for IC50 / H-ras processing, % inhibition @ 50: H-ras (61 L) transformed NIH3T3 fibroblasts, 24 h, 50 μM lovastatin as 100% reference; for H-ras processing, % inhibition @ 50: @ 50 [μM]. As for the experimental part:
The ability of compounds of the invention to inhibit H-ras farnesylation was determined. H-ras (61 L) transformed NIH3T3 fibroblasts were generously provided by C. Der, Univ. N. Carolina. These fibroblasts were treated for 24 h with 50 μM lovastatin or vehicle control or the indicated concentrations of inhibitor. Lovastatin is an HMG-CoA reductase inhibitor. HMG-CoA reductase is an essential enzyme in the cellular synthesis of the prenyl groups with which ras proteins are modified. The cells were lysed in 1% NP-40, 5 mM Tris-HCl (pH 8.0), 5 mM EDTA, 0.1 mM N-tosyl-L-phenylalanine chloromethyl ketone, 0.1 mM N-tosyl-L-lysine chloromethyl ketone, and 1 mM phenylmethylsulfonyl fluoride. The lysate was centrifuged (15000×g, 5 min.) and the supernatant was used as a cell extract. Total protein was separated by SDS-PAGE in 15% acrylamide gel. Processed ras can be differentiated from non-processed ras by its mobility in polyacrylamide gels. After transfer to IMMOBILON P™ membrane (Millipore), the blots were probed with LA069 mouse monoclonal antibody to H-ras (Quality Biotech). All Western blots were developed using ECL chemiluminescent reagents (Amersham) and the relative amounts of farnesylated and non-farnesylated ras were quantitated using the inhibition obtained by 50 μM lovastatin as 100% reference.
Sub-micromolar concentrations are sufficient to inhibit farnesylation of ras proteins in whole cells.
Background: In western blotting, separated proteins are transferred to a membrane and probed.

A further assay has as its target GGTase I (Homo sapiens, UniProt P49354+P53609). Description: In vitro inhibition of GGTase I-mediated prenylation (H-ras (61 L, CAIL), [3H] geranylgeranyl diphosphate). Type of assay: biochemical. Conditions: 5 μM recombinant H-ras (61 L, CAIL), 1 mM [3H] geranylgeranyl diphosphate. On the procedure: (§1) The ability of the disclosed inhibitor compounds to inhibit FTase was measured according to a published prenylation assay (Moores et al., J. Biol Chem. 266:14603 (1991)). Recombinant FTase with 3 μM recombinant H-ras and 440 nM [^3 H] farnesylpyrophosphate were used were used. The inhibitors were diluted in assay buffer, and each assay mixture was incubated 15 min. at 37° C. Where inhibition of GGTase I was measured, GGTase I with 5 μM recombinant, H-ras (61 L, CAIL) and 1 mM [^3 H] geranylgeranyl diphosphate were used.
(§2) Nanomolar concentrations of the indicated compounds were sufficient to inhibit farnesylation of ras proteins in vitro. For screening candidate compounds useful for the treatment of ras-associated tumors, the FTase assay is preferred. […] Substitutions which confer GGTase I specificity as taught herein also produced potent inhibitors of GGTase I.

A further assay addresses FTase (Homo sapiens, UniProt P49354+P49356). Briefly: In vitro inhibition of FTase-mediated prenylation (recombinant FTase, recombinant H-ras, [3H] farnesylpyrophosphate). The class given is biochemical. The settings on record: 15 min, 37° C.; 3 μM recombinant H-ras, 440 nM [3H] farnesylpyrophosphate. On the procedure:
as §1, §2

The test system of assay [1] is H-ras (61 L) transformed NIH3T3 fibroblasts. Briefly: Inhibition of tumor growth of H-ras (61 L) transformed NIH3T3 xenograft in athymic nude mice. Type of assay: in vivo. The settings on record: 100, 50 and 25 mg/kg i.v. daily for 5 days; measured days 7, 10, 14. As for the experimental part: H-ras (61 L) transformed NIH3T3 fibroblasts were grown in Dulbecco's modified Eagle's medium supplemented with 10% heat-inactivated calf serum. 100 U/mL penicillin, 100 μg/mL streptomycin, and 0.75 mg/mL G418 (GIBCO) and incubated at 37° C. in 5% CO2. Cells were harvested from exponential-phase cultures with trypsin-EDTA, centrifuged at 160×g for 5 min, washed once with 10 mL cold Hank's balanced salt solution (HBSS, GIBCO), and resuspended at a concentration of 1×10^6 cells/mL.
Five week old female athymic nude mice were obtained from SLC (3371-8, Kotoummachi, Hamamatsu-shi, Shizuoka 431-11, Japan) and maintained under pathogen-free conditions. The mice were subcutaneously injected in the lateral flank with 1×10^5 H-ras transformed cells/mouse.
Inhibitor compound 1 was suspended in 5% glucose in a total injection volume of 0.2 mL. Three dosage concentrations were prepared, 100, 50 and 25 mg/kg. Compound 1 was intravenously injected daily in the tail vein for 5 consecutive days, starting the day after the implantation (day 0). The control group was injected with vehicle only. Body weight and tumor dimensions were measured at days 7, 10, and 14. Tumor volume was estimated by the following calculation: tumor volume=(0.5)(length×width×width). At day 14, each mouse was euthanized with CO2 (g), and each tumor was excised and weighed. […]

Turning to `COC(=O)[C@H](CCSC)NC(=O)c1cc(OC[C@@H](N)CS)ccc1-c1ccccc1` [Compound 26], in the assay with H-ras, the IC50 – broadly, the concentration that inhibits the measured activity by half – was determined as 3200 nM.
Regarding `CSCC[C@H](NC(=O)c1cccc(OC/C=C/[C@@H](N)CS)c1)C(=O)O` [Compound 7], the IC50 on GGTase I amounted to 3000 nM; at FTase it was 93 nM.
In the case of `COC(=O)[C@H](CCSC)NC(=O)c1cc(OC[C@@H](/C=C/[C@@H](N)CS)C(C)C)ccc1C(C)C` [Compound 22], the IC50 in the assay with H-ras is 122 nM.
In the case of `CSCC[C@H](NC(=O)c1cc(OC[C@@H](/C=C/[C@@H](N)CS)C(C)C)ccc1C(C)C)C(=O)O` [Compound 9], the IC50 was found to be 3800 nM on GGTase I and 22 nM at FTase.
The corresponding values for `CSCC[C@H](NC(=O)c1cc(OCC[C@@H](N)CS)ccc1C(C)C)C(=O)O` [Compound 11] are 390 nM and 21 nM.
As for `COC(=O)[C@H](CCSC)NC(=O)c1cc(OCC[C@@H](C)CS)ccc1C(C)C` [Compound 29], the IC50 in the assay with H-ras was > 50000 nM.
As to `CSCC[C@H](NC(=O)c1cccc(OC[C@@H](/C=C/[C@@H](N)CS)C(C)C)c1)C(=O)O` [Compound 4], the values for the IC50 at GGTase I and on FTase were 1900 nM and 30 nM, respectively.
Regarding `COC(=O)[C@H](CCSC)NC(=O)c1cc2ccccc2cc1OC/C=C/[C@@H](N)CS` [Compound 19], the “H-ras processing, % inhibition @ 50” value in the assay with H-ras amounted to 46%.
As for `CSCCC(NC(=O)c1ccc(OC[C@@H](/C=C/[C@@H](N)CS)C(C)C)cc1)C(=O)O` (stereo partly drawn) [Compound 5], the IC50 on GGTase I came out at 40000 nM; on FTase, 6300 nM.
`CSCC[C@H](NC(=O)c1cc(OCC[C@@H](N)CS)ccc1-c1ccccc1)C(=O)O` [Compound 12]: the IC50 at GGTase I is 38 nM; at FTase, 4 nM.
In the assay with H-ras, `COC(=O)[C@H](CCSC)NC(=O)c1cc(COC[C@@H](N)CS)ccc1C(C)C` [Compound 27] came in with an IC50 of 49 nM.
Take `CSCC[C@H](NC(=O)c1ccccc1OC[C@@H](/C=C/[C@@H](N)CS)C(C)C)C(=O)O` [Compound 2]: the IC50 worked out at 1900 nM at GGTase I and 45 nM at FTase.
As to `COC(=O)[C@H](CCSC)NC(=O)c1ccc(OC/C=C/[C@@H](N)CS)cc1` [Compound 21], in the assay with H-ras, the IC50 is > 50000 nM.
Consider `CSCC[C@H](NC(=O)c1cc(COC[C@@H](N)CS)ccc1C(C)C)C(=O)O` [Compound 30], for which the IC50 turned out to be 930 nM at GGTase I and 15 nM at FTase.
On the same counts, the results for `CSCC[C@H](NC(=O)c1cc2ccccc2cc1OC/C=C/[C@@H](N)CS)C(=O)O` [Compound 6] are 4200 nM and 1300 nM.
On to `COC(=O)[C@H](CCSC)N(C)Cc1cc(OCC[C@@H](N)CS)ccc1C(C)C` [Compound 28], for which the “H-ras processing, % inhibition @ 50” value in the assay with H-ras turned out to be 42%.
Turning to `COC(=O)[C@H](CCSC)NC(=O)c1cc(OCC[C@@H](N)CS)ccc1-c1ccccc1` [Compound 24], the IC50 with H-ras is 298 nM.
On to `COC(=O)[C@H](CCSC)NC(=O)c1cc(OC[C@@H](N)CS)ccc1C(C)C` [Compound 25], for which inhibition with H-ras was half-maximal at 3100 nM (IC50).
For `CSCC[C@H](NC(=O)c1ccc(OC/C=C/[C@@H](N)CS)cc1)C(=O)O` [Compound 8], the IC50 was > 100000 nM on GGTase I and 890 nM on FTase.
The corresponding values for `CSCC[C@H](NC(=O)c1cc(OCC[C@@H](C)CS)ccc1C(C)C)C(=O)O` [Compound 32] are 100000 nM and 470 nM.
Molecule `COC(=O)C(CCSC)NC(=O)c1ccccc1OC[C@@H](/C=C/[C@@H](N)CS)C(C)C` (stereo partly drawn) [Compound 15] had an IC50 in the assay with H-ras of 4100 nM.
In the case of `COC(=O)C(CCSC)NC(=O)c1cccc(OC/C=C/[C@@H](N)CS)c1` (stereo partly drawn) [Compound 20], the “H-ras processing, % inhibition @ 50” value in the assay on H-ras is reported as 38%.
In the assay on H-ras, `COC(=O)[C@H](CCSC)NC(=O)c1cc(OC[C@@H](/C=C/[C@@H](N)CS)C(C)C)ccc1-c1ccccc1` [Compound 23] showed an IC50 of 31000 nM.
On the same count and under the same terms, under `COC(=O)[C@H](CCSC)NC(=O)c1ccc(OC[C@@H](/C=C/[C@@H](N)CS)C(C)C)cc1` [Compound 18] stands > 50000 nM.
Turning to `CSCC[C@@H](C(=O)O)N(C)Cc1cc(OCC[C@@H](N)CS)ccc1C(C)C` [Compound 31], the IC50 is 8900 nM at GGTase I and 350 nM on FTase.
On the same counts, the results for `CSCC[C@H](NC(=O)c1cc2ccccc2cc1OC[C@@H](/C=C/[C@@H](N)CS)C(C)C)C(=O)O` [Compound 3] are 1700 nM and 500 nM.
On to `CSCC[C@H](NC(=O)c1cc(OC[C@@H](N)CS)ccc1-c1ccccc1)C(=O)O` [Compound 14], for which the IC50 on GGTase I is 130 nM; at FTase it was 15 nM.
In the assay with H-ras, `COC(=O)[C@H](CCSC)NC(=O)c1cccc(OC[C@@H](/C=C/[C@@H](N)CS)C(C)C)c1` [Compound 17] showed a 50% inhibitory concentration (IC50) of 3300 nM.
For `COC(=O)[C@H](CCSC)NC(=O)c1cc(OCC[C@@H](N)CS)ccc1C(C)C` [Compound 1], the “inhibition of tumor growth / tumor volume (FIG. 1)” value in assay [1] is reported as “inhibition of tumor growth”. Besides, it took 39 nM to reach half-maximal inhibition with H-ras (IC50). Also, the “potency within the series (in words)” value in the assay with H-ras (statement in Formulations section, test not specified) was “the most potent compound of the series”.
